Laboratory results as given in paper PMC11901676, “Substrate Selectivities of GH78 α-L-Rhamnosidases from Human Gut Bacteria on Dietary Flavonoid Glycosides” (Molecules, 2025).
Values belong to the molecule of their own block, whether it stands above or below them.

What was measured:
Assay in all cases: HPLC initial rates, Michaelis-Menten fit
HFM-RhaC = tested on: T1, HFM-RhaC; format: biochemical, metagenome: human feces; details: 50 mM sodium phosphate pH 6.0, 37 °C, 5 min
T1 construct: recombinant in E. coli BL21(DE3), Ni-NTA purified
Description: HPLC initial rates, Michaelis-Menten fit on HFM-RhaC

HFM-Rha78 = tested on: T2, HFM-Rha78; format: biochemical, metagenome: human feces; details: 50 mM sodium phosphate pH 6.5, 37 °C, 5 min
T2 construct: recombinant in E. coli BL21(DE3), Ni-NTA purified
Description: HPLC initial rates, Michaelis-Menten fit on HFM-Rha78

HFM-RhaA = tested on: T3, HFM-RhaA; format: biochemical, metagenome: human feces; details: 50 mM sodium phosphate pH 6.0, 37 °C, 5 min
T3 construct: recombinant in E. coli BL21(DE3), Ni-NTA purified; catalytic residues Glu448 (acid) and Glu715 (base); AlphaFold2 model said to be in UniProt
Description: HPLC initial rates, Michaelis-Menten fit on HFM-RhaA

[1] = substrate: COc1ccc([C@@H]2CC(=O)c3c(O)cc(O[C@@H]4O[C@H](CO[C@@H]5O[C@@H](C)[C@H](O)[C@@H](O)[C@H]5O)[C@@H](O)[C@H](O)[C@H]4O)cc3O2)cc1O; format: biochemical, Bacteroides thetaiotaomicron; details: 50 mM sodium phosphate pH 6.5, 37 °C, 5 min
Description: (§1) HPLC initial rates, Michaelis-Menten fit on BtRha78A

[2] = substrate: C[C@@H]1O[C@@H](OC[C@H]2O[C@@H](Oc3c(-c4ccc(O)c(O)c4)oc4cc(O)cc(O)c4c3=O)[C@H](O)[C@@H](O)[C@@H]2O)[C@H](O)[C@H](O)[C@H]1O; format: biochemical, Bacteroides thetaiotaomicron; details: 50 mM sodium phosphate pH 6.5, 37 °C, 5 min
Description: as §1

Km (HFM-RhaC): 3250 µM
Km (HFM-Rha78): 3970 µM
Km (HFM-RhaA): 530 µM
Molecule: COc1ccc([C@@H]2CC(=O)c3c(O)cc(O[C@@H]4O[C@H](CO)[C@@H](O)[C@H](O)[C@H]4O[C@@H]4O[C@@H](C)[C@H](O)[C@@H](O)[C@H]4O)cc3O2)cc1O [Neohesperidin]

Km (HFM-RhaC): 5050 µM
Km (HFM-RhaA): 1240 µM
Molecule: C[C@@H]1O[C@@H](OC[C@H]2O[C@@H](Oc3c(-c4ccc(O)c(O)c4)oc4cc(O)cc(O)c4c3=O)[C@H](O)[C@@H](O)[C@@H]2O)[C@H](O)[C@H](O)[C@H]1O [Rutin]

More lines, now with the values behind:

Molecule: C[C@@H]1O[C@@H](O[C@H]2[C@H](Oc3cc(O)c4c(c3)O[C@H](c3ccc(O)cc3)CC4=O)O[C@H](CO)[C@@H](O)[C@@H]2O)[C@H](O)[C@H](O)[C@H]1O [Naringin]
Km (HFM-RhaC): 2290 µM
Km (HFM-Rha78): 5970 µM
Km (HFM-RhaA): 1920 µM

Molecule: COc1ccc([C@@H]2CC(=O)c3c(O)cc(O[C@@H]4O[C@H](CO[C@@H]5O[C@@H](C)[C@H](O)[C@@H](O)[C@H]5O)[C@@H](O)[C@H](O)[C@H]4O)cc3O2)cc1O [Hesperidin]
Km (HFM-RhaC): 2160 µM

B1: BtRha78A (Bacteroides thetaiotaomicron VPI-5482) (protein)
chain: MILLGALSLASSTFAQTWIWYPGDYEIWLGNQMNNRRTERGAFFPPFWKTDSHYVVVEFSKVLNLSEPEEVFIAAEGTYNVKLDGKLQFGMPETLLLPAGKHSLNIKVWNQATPPTIYVKGKTVNSDSSWRVTYEDKEWIDESGKASDTSATIYMDAGCWNFDGATQRPSQFSLMREPQQPVAKTEQPEGGILYDFGKETFGFITLKNLSGKGKIDLYYGESPEEAKDKAYCETLDKLLLEPGQITDLAIRSTSPLHHSDNEYTLENSKAFRYVYITHEPEVQIGEVSMQYEYLPEEYRGNFRCNDEELNCIWEVGAYTMHLTTREFFIDGIKRDRWVWSGDAIQSYLMNYYLFFDSESVKRTIWLLRGKDPVTSHSNTIMDYTFYWFLSVYDYYMYSGDRHFVNQLYPRMQTMMDYVLGRTNKNGMVEGMSGDWVFVDWADGYLDKKGELSFEQVLFCRSLETMALCADLVGDKDGQQKYEKLASALKAKLEPTFWNNQKQAFVHNCVDGRQSDAVTRYANMFSVFFDYLNADKQQAIKQSVLLNDEILKITTPYMRFYELEALCALGEQETVMKEMKAYWGGMLKAGATSFWEKYNPEESGTQHLAMYGRPYGKSLCHAWGASPIYLLGKYYLGVKPTKEGYKEFAVSPVLGGLKWMEGTVPTPNGDIHVYMDNKTIKVKATEGKGYLTIQSRRQPKANMGTVEKVSEGVWRLWIDSPEERIVTYRL
notes: recombinant in E. coli BL21(DE3), Ni-NTA purified
Km [1]: 2780 µM
kcat [1]: 8.73 s⁻¹
kcat/Km [1]: 3140 M⁻¹ s⁻¹
Km [2]: 2380 µM
kcat [2]: 0.47 s⁻¹
kcat/Km [2]: 200 M⁻¹ s⁻¹
